SMILES strings stand for the structures.

22 compounds from patent publication US12679807B2 (MERCK SHARP & DOHME LLC, priority 2020, dated 2026) can be followed below.

The target in this test is T1, GCS enzyme contained within Golgi preparations isolated from human A375 malignant melanoma skin cells (Homo sapiens, UniProt Q16739).
T1 construct: endogenous levels of GCS enzyme contained within Golgi preparations isolated from human A375 malignant melanoma skin cells; endogenous in cells; host or cells: A375 human malignant melanoma cells (crude Golgi preparation)
T1 sequence (Q16739 1-394): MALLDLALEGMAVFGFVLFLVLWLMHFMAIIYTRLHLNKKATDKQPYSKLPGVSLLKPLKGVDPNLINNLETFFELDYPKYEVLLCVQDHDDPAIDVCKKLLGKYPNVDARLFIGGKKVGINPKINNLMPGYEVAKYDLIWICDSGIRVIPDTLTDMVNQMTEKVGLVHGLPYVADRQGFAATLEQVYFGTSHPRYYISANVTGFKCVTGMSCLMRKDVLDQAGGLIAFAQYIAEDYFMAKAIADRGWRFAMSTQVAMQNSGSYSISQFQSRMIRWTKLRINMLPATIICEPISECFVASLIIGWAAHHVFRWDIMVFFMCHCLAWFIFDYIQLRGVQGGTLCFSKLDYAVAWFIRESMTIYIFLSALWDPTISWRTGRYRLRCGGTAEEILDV
In words: UDP-Glo glucosylceramide synthase biochemical assay. As to conditions: crude Golgi preparation from A375 cells; C6 ceramide and UDP-glucose substrates; 20 h incubation at room temperature; UDP detected by luminescence. The text has this: UDP-Glo™ Glucosylceramide Synthase Biochemical Assay
A UDP-Glo™ glucosylceramide synthase biochemical assay was utilized to evaluate the effect of test compounds on the activity of endogenous levels of GCS enzyme contained within Golgi preparations isolated from human A375 malignant melanoma skin cells. The UDP-Glo™ glucosylceramide synthase assay uses UDP-Glucose as a nucleotide-glycosyl donor and ceramide as substrate acceptor molecules. In the reaction, glucosylceramide synthase (GCS) transfers glucose from UDP-Glucose to ceramide. Glucosylceramide and UDP are released as products.
Using Promega's UDP-Glo™ Glycosyltransferase assay kit (Promega Corporation, Madison, WI, USA (Promega)), GCS activity was indirectly measured by detecting the amount of UDP produced. An aliquot of GCS enzyme (1.5 μg crude golgi preparation, total protein) and titrated test compound were aliquoted to each well and incubated for 30 minutes at room temperature. […] An equivalent volume of substrate mixture was then added to each well. Following a 20 h incubation at room temperature to allow for GCS turnover of substrate, an equal volume of UDP detection reagent (Promega) was added to each well and incubated for an additional 75 minutes at room temperature to simultaneously convert the accumulated UDP product into ATP and generate light in a luciferase reaction. The generated light was detected using a luminometer. […] luminescence values (RLUs) were normalized to mean “min” and “max” effects, as determined on each plate. […] Values for % Emax and EC50 were determined by best-fitting the normalized data to a curve in Activity Base along a four-parameter logistic nonlinear regression (4PL) model (based on the Levenberg-Marquardt algorithm and defined by the equation below):
[formula] where: n is 4 PMin (bottom of the curve); m is 4 PMax (top of the curve); i is IP (inflection point of curve); and p is slope. See Levenberg, K., “A Method for the Solution of Certain Problems in Least Squares”, Quart. Appl. Math. […] Math.
In the case of `COc1ccc(F)c(F)c1C(=O)Nc1cccc2c1C(=O)N(C(C1CC1)C(C)(C)O)C2` (single isomer, unassigned) [Compound 112, (R or S)-N-(2-(1-cyclopropyl-2-hydroxy-2-methylpropyl)-3-oxoisoindolin-4-yl)-2,3-difluoro-6-methoxybenzamide], the EC50 (usually the midpoint of the concentration-response curve) was 0.41 nM.
Then `Cc1cccc(C(=O)Nc2cccc3c2C(=O)N(C(C2CC2)C(C)(C)O)C3)c1Cl` (single isomer, unassigned) [Compound 113, (R or S)-2-chloro-N-(2-(1-cyclopropyl-2-hydroxy-2-methylpropyl)-3-oxoisoindolin-4-yl)-3-methylbenzamide], with 1.2 nM.
`CC(C)(O)C(C1CC1)N1Cc2cccc(NC(=O)c3cccc4c3CCC4)c2C1=O` (single isomer, unassigned) [Compound 114, (R or S)-N-(2-(1-cyclopropyl-2-hydroxy-2-methylpropyl)-3-oxoisoindolin-4-yl)-2,3-dihydro-1H-indene-4-carboxamide] had a 50% effective concentration (EC50) of 1.3 nM.
The value for `CC(C)(O)C(C1CC1)N1Cc2cccc(NC(=O)c3c(F)ccc(F)c3Cl)c2C1=O` (single isomer, unassigned) [Compound 115, (R or S)-2-chloro-N-(2-(1-cyclopropyl-2-hydroxy-2-methylpropyl)-3-oxoisoindolin-4-yl)-3,6-difluorobenzamide] was 1.5 nM; that for `CC(C)(O)C(C1CC1)N1Cc2cccc(NC(=O)c3cccc(F)c3C(F)(F)F)c2C1=O` (single isomer, unassigned) [Compound 116, (R or S)-N-(2-(1-cyclopropyl-2-hydroxy-2-methylpropyl)-3-oxoisoindolin-4-yl)-3-fluoro-2-(trifluoromethyl)benzamide] was 3.1 nM; that for `Cc1c(F)cccc1C(=O)Nc1cccc2c1C(=O)N(C(C1CC1)C(C)(C)O)C2` (single isomer, unassigned) [Compound 119, (R or S)-N-(2-(1-cyclopropyl-2-hydroxy-2-methylpropyl)-3-oxoisoindolin-4-yl)-3-fluoro-2-methylbenzamide] was 7.2 nM.
Then `Cc1c(C(=O)Nc2cccc3c2C(=O)N(C(C2CC2)C(C)(C)O)C3)cccc1C(F)(F)F` (single isomer, unassigned) [Compound 120, (R or S)-N-(2-(1-cyclopropyl-2-hydroxy-2-methylpropyl)-3-oxoisoindolin-4-yl)-2-methyl-3-(trifluoromethyl)benzamide], with 10 nM.
Regarding `CC(C)(O)C(C1CC1)N1Cc2cccc(NC(=O)c3cccc4ncsc34)c2C1=O` (single isomer, unassigned) [Compound 131, (R or S)-N-(2-(1-cyclopropyl-2-hydroxy-2-methylpropyl)-3-oxoisoindolin-4-yl)benzo[d]thiazole-7-carboxamide], it took 45 nM to reach a half-maximal effect (EC50).
Take `COCC(C1CC1)N1Cc2cccc(NC(=O)c3ccnc4c3CCC4)c2C1=O` (single isomer, unassigned) [Compound 136, (R or S)-N-(2-(1-cyclopropyl-2-methoxyethyl)-3-oxoisoindolin-4-yl)-6,7-dihydro-5H-cyclopenta[b]pyridine-4-carboxamide]: the EC50 was determined as 80 nM.
The value for `CC(C)(O)C(C1CC1)N1Cc2cncc(NC(=O)c3ccnc4c3CCC4)c2C1=O` (single isomer, unassigned) [Compound 151, (R or S)—N-(2-(1-Cyclopropyl-2-hydroxy-2-methylpropyl)-1-oxo-2,3-dihydro-1H-pyrrolo[3,4-c]pyridin-7-yl)-6,7-dihydro-5H-cyclopenta[b]pyridine-4-carboxamide] was 61 nM; that for `CC(C)(O)C(C1CC1)N1Cc2nccc(NC(=O)c3ccnc4c3CCC4)c2C1=O` (single isomer, unassigned) [Compound 152, (R or S)-N-(6-(1-cyclopropyl-2-hydroxy-2-methylpropyl)-5-oxo-6,7-dihydro-5H-pyrrolo [3,4-b]pyridin-4-yl)-6,7-dihydro-5H-cyclopenta[b]pyridine-4-carboxamide] was 96 nM.
`COc1ncc(C)c(C(=O)Nc2cccc3c2C(=O)N(C(C2CC2)C(C)(C)O)C3)c1C` (single isomer, unassigned) [Compound 153, (R or S)-N-(2-(1-cyclopropyl-2-hydroxy-2-methylpropyl)-3-oxoisoindolin-4-yl)-2-methoxy-3,5-dimethylisonicotinamide] had an EC50 of 29 nM.
On to `COc1ncc(Cl)c(C(=O)Nc2cccc3c2C(=O)N(C(C2CC2)C(C)(C)O)C3)c1C` (single isomer, unassigned) [Compound 154, (R or S)-5-Chloro-N-(2-(1-cyclopropyl-2-hydroxy-2-methylpropyl)-3-oxoisoindolin-4-yl)-2-methoxy-3-methylisonicotinamide], for which the EC50 amounted to 0.1 nM.
With `CC(C)(O)C(C1CC1)N1Cc2cccc(NC(=O)c3c(Cl)cnc4c3CCO4)c2C1=O` (single isomer, unassigned) [Compound 155, (R or S)-5-Chloro-N-(2-(1-cyclopropyl-2-hydroxy-2-methylpropyl)-3-oxoisoindolin-4-yl)-2,3-dihydrofuro[2,3-b]pyridine-4-carboxamide], the EC50 worked out at 0.19 nM.
The value for `CC(C)(O)C(C1CC1)N1Cc2cccc(NC(=O)c3c(Cl)cnc4c3OCO4)c2C1=O` (single isomer, unassigned) [Compound 157, (R or S)-6-chloro-N-(2-(1-cyclopropyl-2-hydroxy-2-methylpropyl)-3-oxoisoindolin-4-yl)-[1,3]dioxolo[4,5-b]pyridine-7-carboxamide] was 0.49 nM.
Then `CC(C)(O)C(C1CC1)N1Cc2cccc(NC(=O)c3ccnc4c3CCC4)c2C1=O` (single isomer, unassigned) [Compound 158, (R or S)-N-(2-(1-cyclopropyl-2-hydroxy-2-methylpropyl)-3-oxoisoindolin-4-yl)-6,7-dihydro-5H-cyclopenta[b]pyridine-4-carboxamide], with 1 nM.
Then `Cn1cc2c(C(=O)Nc3cccc4c3C(=O)N(C(C3CC3)C(C)(C)O)C4)cccc2n1` (single isomer, unassigned) [Compound 160, (R or S)-N-(2-(1-cyclopropyl-2-hydroxy-2-methylpropyl)-3-oxoisoindolin-4-yl)-2-methyl-2H-indazole-4-carboxamide], with 5.9 nM; and `CC(C)(O)C(C1CC1)N1Cc2cccc(NC(=O)c3ccnc4c3CCO4)c2C1=O` (single isomer, unassigned) [Compound 162, (R or S)-N-(2-(1-cyclopropyl-2-hydroxy-2-methylpropyl)-3-oxoisoindolin-4-yl)-2,3-dihydrofuro[2,3-b]pyridine-4-carboxamide], with 23 nM.
In turn, `CC(C)(O)C(C1CC1)N1Cc2cccc(NC(=O)c3ccnc4c3OCCO4)c2C1=O` (single isomer, unassigned) [Compound 163, (R or S)-N-(2-(1-cyclopropyl-2-hydroxy-2-methylpropyl)-3-oxoisoindolin-4-yl)-2,3-dihydro-[1,4]dioxino[2,3-b]pyridine-8-carboxamide] registered a 50% effective concentration (EC50) of 61 nM.
The compound `COc1nccc(C(=O)Nc2cccc3c2C(=O)N(C(C2CC2)C(C)(C)O)C3)c1OC` (single isomer, unassigned) [Compound 164, (R or S)-N-(2-(1-cyclopropyl-2-hydroxy-2-methylpropyl)-3-oxoisoindolin-4-yl)-2,3-dimethoxyisonicotinamide] displayed an EC50 of 77 nM. The EC50 values of the last two compounds are within 1.5-fold of each other.
`COC(C)(C)C(C1CC1)N1Cc2cccc(NC(=O)c3ccnc4c3CCC4)c2C1=O` (single isomer, unassigned) [Compound 165, (R or S)-N-(2-(1-cyclopropyl-2-methoxy-2-methylpropyl)-3-oxoisoindolin-4-yl)-6,7-dihydro-5H-cyclopenta[b]pyridine-4-carboxamide] returned an EC50 of 200 nM.
Then `Cc1cnc2c(c1C(=O)Nc1cccc3c1C(=O)N(C(C1CC1)C(C)(C)O)C3)CCO2` (single isomer, unassigned) [Compound 168, (R or S)—N-(2-(1-Cyclopropyl-2-hydroxy-2-methylpropyl)-3-oxoisoindolin-4-yl)-5-methyl-2,3-dihydrofuro[2,3-b]pyridine-4-carboxamide], with 0.3 nM.
